In patent US20260325533A1, “CDK INHIBITOR COMPOUNDS” (ALEKSIA THERAPEUTICS, INC., priority 2023, published 2026):
Where two headings read alike, the source gives them in different places.

Experiments:
Format in all cases: biochemical
CDK4/CCND3 = CDK4/CCND3 (Homo sapiens, UniProt P11802); assay: CDK4 homogeneous time-resolved fluorescence (HTRF) kinase assay; conditions: CDK4/CCND
Procedure, shortened: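 IC50s derive from Lance 665 nm or 665/615 nm signals in 11-point, half-log dose series (top 10 μM, 1% DMSO). The enzyme, 1.5 nM CDK4/CCND3, phosphorylates 50 nM ULight-4E-BP1 peptide with 1 mM ATP over 60 min at 23 °C.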

CDK2/CCNE1 = CDK2/CCNE1 (Homo sapiens, UniProt P24941); assay: CDK2 homogeneous time-resolved fluorescence (HTRF) kinase assay; conditions: CDK2/CCNE
Procedure, shortened: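 IC50 derived from 11-point, half-log dilutions (usually top 10 μM) of compound, 1% DMSO. Kinase (3 nM CDK2/CCNE1) was preincubated with compound 20 min, then phosphorylated 50 nM ULight-4E-BP1 peptide at 1 mM ATP for 60 min, 23 °C. Europium-antibody TR-FRET read after EDTA stop.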

CDK6/CCND1 = CDK6/CCND1 (Homo sapiens, UniProt Q00534); assay: CDK6 homogeneous time-resolved fluorescence (HTRF) kinase assay; conditions: CDK6/CCND, 1 mM ATP
Procedure, shortened: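 Assay conditions: HEPES buffer containing 10 mM MgCl2, 1 mM EGTA, 2 mM DTT, 0.01% Tween 20; 1 nM CDK6/CCND1, 50 nM peptide substrate, 1 mM ATP. Detection after 60 min reaction used 2 nM europium antibody with 340 nm excitation. Potency fitted from half-log series, 11 points.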

CDK1/CCNB1 = CDK1/CCNB1 (Homo sapiens, UniProt P06493); assay: CDK1 homogeneous time-resolved fluorescence (HTRF) kinase assay; conditions: CDK1/CCNB
Procedure, shortened: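 Compounds, titrated 11 points in half-log steps typically from 10 μM, were incubated with enzyme for 20 min before ATP (1 mM) and ULight-labelled eIF4E-binding protein 1 peptide (50 nM) started a 60-min reaction at 23 °C. Phosphopeptide was detected by europium-antibody TR-FRET and IC50 values were derived.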

[1] = >250 nM, read-out: CDK4/CCND IC50, >250 nM
[2] = 25-250 nM, read-out: CDK2/CCNE IC50, 25-250 nM
[3] = >250 nM, read-out: CDK6/CCND IC50, >250 nM
[4] = >250 nM, read-out: CDK1/CCNB IC50 >250 nM
[5] = <25 nM, read-out: CDK2/CCNE IC50, <25 nM
[6] = 25-250 nM, read-out: CDK4/CCND IC50, 25-250 nM
[7] = 25-250 nM, read-out: CDK6/CCND IC50, 25-250 nM
[8] = 25-250 nM, read-out: CDK1/CCNB IC50, 25-250 nM

Chain of CDK6/CCND1 (Q00534 whole entry): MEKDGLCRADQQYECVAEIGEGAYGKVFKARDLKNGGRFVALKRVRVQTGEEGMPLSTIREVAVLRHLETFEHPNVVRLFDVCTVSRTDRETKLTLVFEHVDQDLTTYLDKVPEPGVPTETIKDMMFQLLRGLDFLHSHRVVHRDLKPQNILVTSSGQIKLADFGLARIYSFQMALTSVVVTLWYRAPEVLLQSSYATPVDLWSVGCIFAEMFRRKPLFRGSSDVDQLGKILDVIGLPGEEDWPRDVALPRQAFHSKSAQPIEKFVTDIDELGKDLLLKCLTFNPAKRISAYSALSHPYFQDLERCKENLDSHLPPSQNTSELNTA
Chain of CDK6/CCND1 (P24385 whole entry partner): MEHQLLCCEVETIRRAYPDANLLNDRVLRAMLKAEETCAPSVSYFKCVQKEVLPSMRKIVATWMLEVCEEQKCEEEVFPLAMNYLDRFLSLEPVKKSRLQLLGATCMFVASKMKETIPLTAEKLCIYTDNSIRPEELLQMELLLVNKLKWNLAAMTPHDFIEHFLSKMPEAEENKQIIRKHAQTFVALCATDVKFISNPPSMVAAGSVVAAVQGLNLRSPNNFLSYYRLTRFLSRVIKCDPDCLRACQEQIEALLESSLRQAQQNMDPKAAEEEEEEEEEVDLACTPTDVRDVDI
Chain of CDK4/CCND3 (P11802 whole entry): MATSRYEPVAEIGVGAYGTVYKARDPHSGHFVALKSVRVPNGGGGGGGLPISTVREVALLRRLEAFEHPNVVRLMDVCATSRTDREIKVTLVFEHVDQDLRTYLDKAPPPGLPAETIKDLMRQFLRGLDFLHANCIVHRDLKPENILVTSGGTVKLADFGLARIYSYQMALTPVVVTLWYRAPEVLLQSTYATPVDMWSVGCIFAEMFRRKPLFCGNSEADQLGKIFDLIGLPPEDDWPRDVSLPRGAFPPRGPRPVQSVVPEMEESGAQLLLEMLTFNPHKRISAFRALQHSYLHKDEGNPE
Chain of CDK4/CCND3 (P30281 whole entry partner): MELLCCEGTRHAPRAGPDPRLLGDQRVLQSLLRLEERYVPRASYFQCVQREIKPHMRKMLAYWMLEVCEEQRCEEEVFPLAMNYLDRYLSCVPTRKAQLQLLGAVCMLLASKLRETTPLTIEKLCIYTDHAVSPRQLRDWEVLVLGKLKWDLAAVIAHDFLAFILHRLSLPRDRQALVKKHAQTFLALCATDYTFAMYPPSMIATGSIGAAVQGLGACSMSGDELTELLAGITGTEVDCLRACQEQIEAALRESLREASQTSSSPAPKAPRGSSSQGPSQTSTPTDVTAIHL
Chain of CDK1/CCNB1 (P06493 whole entry): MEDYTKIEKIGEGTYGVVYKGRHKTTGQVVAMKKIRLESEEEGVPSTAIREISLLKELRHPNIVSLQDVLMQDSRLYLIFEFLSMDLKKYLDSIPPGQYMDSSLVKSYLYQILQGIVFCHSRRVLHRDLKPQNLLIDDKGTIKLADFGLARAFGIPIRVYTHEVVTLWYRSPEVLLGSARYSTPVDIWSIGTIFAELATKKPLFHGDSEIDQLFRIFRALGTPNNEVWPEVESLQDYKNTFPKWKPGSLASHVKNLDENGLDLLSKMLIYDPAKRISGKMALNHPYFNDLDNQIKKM
Chain of CDK1/CCNB1 (P14635 whole entry partner): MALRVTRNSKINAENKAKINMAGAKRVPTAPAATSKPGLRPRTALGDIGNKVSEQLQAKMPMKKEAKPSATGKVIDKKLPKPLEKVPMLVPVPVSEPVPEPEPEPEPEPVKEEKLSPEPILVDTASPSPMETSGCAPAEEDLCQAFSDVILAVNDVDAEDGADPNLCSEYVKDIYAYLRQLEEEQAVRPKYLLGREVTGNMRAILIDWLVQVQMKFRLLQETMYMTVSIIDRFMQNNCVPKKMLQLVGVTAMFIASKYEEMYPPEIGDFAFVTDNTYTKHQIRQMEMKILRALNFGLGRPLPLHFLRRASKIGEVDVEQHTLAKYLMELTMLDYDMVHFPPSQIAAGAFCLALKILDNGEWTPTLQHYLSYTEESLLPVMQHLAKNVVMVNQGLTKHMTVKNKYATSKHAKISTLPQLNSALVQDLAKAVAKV

Compound | IC50 (CDK4/CCND3; [1]) [nM] | IC50 (CDK2/CCNE1; [2]) [nM] | IC50 (CDK6/CCND1; [3]) [nM] | IC50 (CDK1/CCNB1; [4]) [nM] | IC50 (CDK2/CCNE1; [5]) [nM] | IC50 (CDK4/CCND3; [6]) [nM] | IC50 (CDK6/CCND1; [7]) [nM] | IC50 (CDK1/CCNB1; [8]) [nM]
COc1cc(NS(=O)(=O)c2ccc(Nc3cc4c(-c5ccc6c(cnn6CC(O)(C(F)(F)F)C(F)(F)F)c5C)nccc4cn3)cc2)nc(OC)c1 [Ex 742, N-(4,6-dimethoxypyridin-2-yl)-4-((5-(4-methyl-1-(3,3,3-trifluoro-2-hydroxy-2-(trifluoromethyl)propyl)-1H-indazol-5-yl)-2,6-naphthyridin-3-yl)amino)benzenesulfonamide] | > 250 | 25 to 250 | > 250 | > 250 | – | – | – | –
Cc1c(-c2nccc3cnc(Nc4ccc(S(=O)(=O)Nc5nccc(C(F)(F)F)n5)cc4)cc23)ccc2c1cnn2CC(O)(C(F)(F)F)C(F)(F)F [Ex 744, 4-((5-(4-methyl-1-(3,3,3-trifluoro-2-hydroxy-2-(trifluoromethyl)propyl)-1H-indazol-5-yl)-2,6-naphthyridin-3-yl)amino)-N-(4-(trifluoromethyl)pyrimidin-2-yl)benzenesulfonamide] | > 250 | 25 to 250 | > 250 | > 250 | – | – | – | –
COc1cc(OC)nc(NS(=O)(=O)c2ccc(Nc3cc4c(-c5ccc6c(cnn6CC(O)(C(F)(F)F)C(F)(F)F)c5C)nccc4cn3)cc2)n1 [Ex 745, N-(4,6-dimethoxypyrimidin-2-yl)-4-((5-(4-methyl-1-(3,3,3-trifluoro-2-hydroxy-2-(trifluoromethyl)propyl)-1H-indazol-5-yl)-2,6-naphthyridin-3-yl)amino)benzenesulfonamide] | > 250 | 25 to 250 | > 250 | > 250 | – | – | – | –
Cc1c(-c2nccc3cnc(Nc4ccc(S(=O)(=O)N[C@H](C)CCO)cc4)cc23)ccc2c1cnn2CC(C)(C)O [Ex 747, (R)-4-((5-(1-(2-hydroxy-2-methylpropyl)-4-methyl-1H-indazol-5-yl)-2,6-naphthyridin-3-yl)amino)-N-(4-hydroxybutan-2-yl)benzenesulfonamide] | – | – | – | > 250 | < 25 | 25 to 250 | 25 to 250 | –
Cc1c(-c2nccc3cnc(Nc4ccc(NS(=O)(=O)c5nccs5)cc4)cc23)ccc2c1cnn2CC(C)(C)O [Ex 748, N-(4-((5-(1-(2-hydroxy-2-methylpropyl)-4-methyl-1H-indazol-5-yl)-2,6-naphthyridin-3-yl)amino)phenyl)thiazole-2-sulfonamide] | > 250 | – | > 250 | > 250 | < 25 | – | – | –
Cc1c(-c2nccc3cnc(Nc4ccc(S(=O)(=O)Nc5nccc(N6CCN(CCO)CC6)n5)cc4)cc23)ccc2c1cnn2CC(O)(C(F)(F)F)C(F)(F)F [Ex 755, N-(4-(4-(2-hydroxyethyl)piperazin-1-yl)pyrimidin-2-yl)-4-((5-(4-methyl-1-(3,3,3-trifluoro-2-hydroxy-2-(trifluoromethyl)propyl)-1H-indazol-5-yl)-2,6-naphthyridin-3-yl)amino)benzenesulfonamide] | > 250 | – | > 250 | > 250 | < 25 | – | – | –
Cc1c(-c2nccc3cnc(Nc4ccc(S(=O)(=O)NC5CCCCC5)cc4)cc23)ccc2c1cnn2CC(C)(C)O [Ex 758, N-cyclohexyl-4-((5-(1-(2-hydroxy-2-methylpropyl)-4-methyl-1H-indazol-5-yl)-2,6-naphthyridin-3-yl)amino)benzenesulfonamide] | > 250 | 25 to 250 | > 250 | > 250 | – | – | – | –
Cc1c(-c2nccc3cnc(Nc4ccc(S(=O)(=O)NC5CCN(CCO)CC5)cc4)cc23)ccc2c1cnn2CC(C)(C)O [Ex 762, 4-((5-(1-(2-hydroxy-2-methylpropyl)-4-methyl-1H-indazol-5-yl)-2,6-naphthyridin-3-yl)amino)-N-(1-(2-hydroxyethyl)piperidin-4-yl)benzenesulfonamide] | – | – | – | – | < 25 | 25 to 250 | 25 to 250 | 25 to 250

More lines, now with the values ahead:

IC50 (CDK4/CCND3; [1]) [nM] | IC50 (CDK2/CCNE1; [2]) [nM] | IC50 (CDK6/CCND1; [3]) [nM] | IC50 (CDK1/CCNB1; [4]) [nM] | IC50 (CDK2/CCNE1; [5]) [nM] | IC50 (CDK4/CCND3; [6]) [nM] | IC50 (CDK6/CCND1; [7]) [nM] | IC50 (CDK1/CCNB1; [8]) [nM] | Compound
> 250 | – | > 250 | > 250 | < 25 | – | – | – | COc1cnc(NS(=O)(=O)c2ccc(Nc3cc4c(-c5ccc6c(cnn6CC(O)(C(F)(F)F)C(F)(F)F)c5C)nccc4cn3)cc2)nc1 [Ex 743, N-(5-methoxypyrimidin-2-yl)-4-((5-(4-methyl-1-(3,3,3-trifluoro-2-hydroxy-2-(trifluoromethyl)propyl)-1H-indazol-5-yl)-2,6-naphthyridin-3-yl)amino)benzenesulfonamide]
– | – | – | > 250 | < 25 | 25 to 250 | 25 to 250 | – | Cc1c(-c2nccc3cnc(Nc4ccc(S(=O)(=O)N[C@@H](C)CCO)cc4)cc23)ccc2c1cnn2CC(C)(C)O [Ex 746, (S)-4-((5-(1-(2-hydroxy-2-methylpropyl)-4-methyl-1H-indazol-5-yl)-2,6-naphthyridin-3-yl)amino)-N-(4-hydroxybutan-2-yl)benzenesulfonamide]
> 250 | 25 to 250 | > 250 | > 250 | – | – | – | – | Cc1c(-c2nccc3cnc(Nc4ccc(S(C)(=O)=O)c(Br)c4)cc23)ccc2c1cnn2CC(C)(C)O [Ex 749, 1-(5-(7-((3-bromo-4-(methylsulfonyl)phenyl)amino)-2,6-naphthyridin-1-yl)-4-methyl-1H-indazol-1-yl)-2-methylpropan-2-ol]
> 250 | 25 to 250 | > 250 | > 250 | – | – | – | – | Cc1c(-c2nccc3cnc(Nc4ccc(S(C)(=O)=O)cc4Br)cc23)ccc2c1cnn2CC(C)(C)O [Ex 750, 1-(5-(7-((2-bromo-4-(methylsulfonyl)phenyl)amino)-2,6-naphthyridin-1-yl)-4-methyl-1H-indazol-1-yl)-2-methylpropan-2-ol]
> 250 | – | > 250 | > 250 | < 25 | – | – | – | Cc1c(-c2nccc3cnc(Nc4ccc(NS(=O)(=O)c5cccc(N6CCN(C)CC6)c5)cc4)cc23)ccc2c1cnn2CC(C)(C)O [Ex 751, N-(4-((5-(1-(2-hydroxy-2-methylpropyl)-4-methyl-1H-indazol-5-yl)-2,6-naphthyridin-3-yl)amino)phenyl)-3-(4-methylpiperazin-1-yl)benzenesulfonamide]
> 250 | – | > 250 | > 250 | < 25 | – | – | – | Cc1c(-c2nccc3cnc(Nc4ccc(NS(=O)(=O)c5cccc(N6CCOCC6)c5)cc4)cc23)ccc2c1cnn2CC(C)(C)O [Ex 753, N-(4-((5-(1-(2-hydroxy-2-methylpropyl)-4-methyl-1H-indazol-5-yl)-2,6-naphthyridin-3-yl)amino)phenyl)-3-morpholinobenzenesulfonamide]
– | – | – | – | < 25 | 25 to 250 | 25 to 250 | 25 to 250 | Cc1c(-c2nccc3cnc(Nc4ccc(NS(=O)(=O)c5cccnn5)cc4)cc23)ccc2c1cnn2CC(C)(C)O [Ex 754, N-(4-((5-(1-(2-hydroxy-2-methylpropyl)-4-methyl-1H-indazol-5-yl)-2,6-naphthyridin-3-yl)amino)phenyl)pyridazine-3-sulfonamide]
> 250 | – | > 250 | > 250 | < 25 | – | – | – | Cc1c(-c2nccc3cnc(Nc4ccc(S(=O)(=O)Nc5nccc(N6CCN(C)CC6)n5)cc4)cc23)ccc2c1cnn2CC(O)(C(F)(F)F)C(F)(F)F [Ex 756, 4-((5-(4-methyl-1-(3,3,3-trifluoro-2-hydroxy-2-(trifluoromethyl)propyl)-1H-indazol-5-yl)-2,6-naphthyridin-3-yl)amino)-N-(4-(4-methylpiperazin-1-yl)pyrimidin-2-yl)benzenesulfonamide]
> 250 | 25 to 250 | > 250 | > 250 | – | – | – | – | Cc1c(-c2ncc(F)c3cnc(Nc4ccc(S(C)(=O)=O)cc4)cc23)ccc2c1cnn2CC(O)(C(F)(F)F)C(F)(F)F [Ex 757, 1,1,1,3,3,3-hexafluoro-2-((5-(4-fluoro-7-((4-(methylsulfonyl)phenyl)amino)-2,6-naphthyridin-1-yl)-4-methyl-1H-indazol-1-yl)methyl)propan-2-ol]
> 250 | – | > 250 | > 250 | < 25 | – | – | – | Cc1ccnc(NS(=O)(=O)c2ccc(Nc3cc4c(-c5ccc6c(cnn6CC(O)(C(F)(F)F)C(F)(F)F)c5C)nccc4cn3)cc2)n1 [Ex 759, 4-((5-(4-methyl-1-(3,3,3-trifluoro-2-hydroxy-2-(trifluoromethyl)propyl)-1H-indazol-5-yl)-2,6-naphthyridin-3-yl)amino)-N-(4-methylpyrimidin-2-yl)benzenesulfonamide]
